In ChEMBL document CHEMBL5604062, “ASAP - ZIKV NS2B-NS3 protease fluorescence dose response” (2024):
Where “and” joins values, the source holds several entries; their conditions need not be identical. Equal values may be shown once.

Target: Nonstructural protein 3 (Zika virus, UniProt A0A024AXB9)
Test: Functional biochemical assay to identify treatments for viral infectious disease that targets Zika NS2B-NS3 protease. Utilizing a direct enzyme activity measurement method, reading the fluorescence intensity is used to characterize the relative potency of inhibitors as IC50.
Design: species or system PRVABC59

Sequence of Nonstructural protein 3 (A0A024AXB9 whole entry): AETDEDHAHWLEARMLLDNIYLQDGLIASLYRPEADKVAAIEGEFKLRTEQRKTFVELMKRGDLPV

IC50 | SMILES
7.17 µM | NCc1cccc(NC(=O)c2cc(Cl)cc([C@H]3CCCCN3)c2)c1
0.186 µM | CC(C)n1ncc2c(C(=O)Nc3ccc4c(c3)CNC4)cc(Cl)cc21
> 25 µM | COc1ccc2[nH]cnc2c1S(=O)(=O)Nc1ccc2c(c1)CNC2
> 25 µM | Cc1c(C(=O)Nc2cc(C(=O)N3Cc4cn[nH]c4C3)ccn2)cc(C2CC2)n1C
11.6 µM | NCc1cccc(NC(=O)[C@@H](NC(=O)OCc2ccccc2)c2ccc(OCc3ccccc3)cc2)c1
> 25 µM | Cc1cc(C)n([C@H]2CCCN(C(=O)Nc3ccc4c(c3)CNC4)C2)n1
10.9 µM | Cc1ccc(NC(=O)c2cc(Cl)cc(NC(=O)OCc3ccccc3)c2)cc1CN
> 99.5 µM | CCn1cc(-c2ccc(OC)c(C)c2)nc(N2CC[C@@H](CO)C2)c1=O
> 99.5 µM | NS(=O)(=O)c1ccccc1N1CCN(Cc2c[nH]c3ccccc23)CC1
0.533 µM | CC(C)NC(=O)[C@H](Nc1ccc2c(c1)CN(C)C2)c1cc(Cl)cc2[nH]ncc12
> 25 µM | Cc1c(C(=O)Nc2cc(C(=O)N[C@H]3CCNC3=O)ccn2)cc(C2CC2)n1C
> 99.5 µM | CCc1nc(C)c(C(=O)Nc2cccc(-c3nnn[nH]3)c2)s1
> 12.5 µM | Cc1c(C(=O)Nc2cc(-c3cccnc3)ccn2)cc(C2CCCCC2)n1C
> 99.5 µM | CC(=O)Nc1cccc(-c2ccc(S(=O)(=O)Nc3ccc(Cl)cc3C(=O)O)cc2)c1
> 99.5 µM | Cc1cc(C)n(-c2ccc(NS(=O)(=O)c3ccc(Cl)cc3C(=O)O)cc2)n1
> 99.5 µM | Cn1cc(Nc2ccc(S(=O)(=O)Nc3ccc(Cl)cc3C(=O)O)cn2)cn1
> 99.5 µM | c1ccc2c(CN[C@H]3CCc4c([nH]c5ccccc45)C3)n[nH]c2c1
> 99.5 µM | CCNC(=O)Nc1cc(Cl)cc(C(=O)O)c1
73.3 µM | c1cnc2[nH]cc(C3CCN(Cc4c[nH]c5ccncc45)CC3)c2c1
> 99.5 µM | Brc1csc(CNCCc2nnc[nH]2)c1

IC50 | SMILES
1.89 µM | O=C(Nc1ccc2c(c1)CN[C@H]2c1ccccc1)c1cc(F)cc2[nH]ncc12
93.9 µM | COc1ccc([C@@H](CC(=O)Nc2cccc(CN)c2)NC(=O)OCc2ccccc2)cc1Br
> 99.5 µM | Cc1cc(C)cc(C(=O)N2CCC(NS(=O)(=O)c3ccc(Cl)cc3C(=O)O)CC2)c1
> 25 µM | Cc1ncc2c(n1)CCC[C@H]2NC(=O)c1cccc2c1CC(=O)N2
> 25 µM | CC1=C(c2cc(F)cc(C(=O)Nc3ccc4c(c3)CNC4)c2)CCCC1
> 99.5 µM | NCc1cccc(NC(=O)[C@@H](NC(=O)OCc2ccccc2)c2ccc(OC[C@H]3CCCCO3)cc2)c1
0.952 µM | O=C(O)C[C@H]1NCc2cc(NC(=O)c3cc(Cl)cc4[nH]ncc34)ccc21
> 99.5 µM | CN1CCN(Cc2ccccc2CNC(=O)[C@@H](NC(=O)OCc2ccccc2)c2ccc(OCc3ccccc3)cc2)CC1
> 25 µM | O=C(Nc1ccc2c(c1)CNC2)c1nc(-c2ccccc2)cs1
> 99.5 µM | CCc1ccc(-c2cn(CC)c(=O)c(N3CC[C@@H](CO)C3)n2)s1
> 99.5 µM | NC(=O)C1CCN(Cc2c[nH]c3ccccc23)CC1
5.8 µM | CCc1ccc(-c2ccc([C@@H](NC(=O)OCc3ccccc3)C(=O)Nc3cccc(CN)c3)cc2)cc1
2.06 µM | O=C(Cn1sc2ccccc2c1=O)Nc1cccc(OCc2cn(CC(=O)Nc3ccccc3Oc3ccccc3)nn2)c1
3.4 µM | O=C(Nc1cc(Cl)cc(C(=O)Nc2ccc3c(c2)CNCC3)c1)OCc1ccccc1
93.7 µM | NCc1ccnc(CNC(=O)[C@@H](NC(=O)OCc2ccccc2)c2ccc(OCc3ccccc3)cc2)c1
> 25 µM | Cc1c(C(=O)Nc2cc(C(=O)N[C@H]3CNC(=O)C3)ccn2)cc(C2CC2)n1C
12 µM | N#Cc1ccccc1-c1ccc([C@H](NC(=O)OCc2ccccc2)C(=O)Nc2cccc(CN)c2)cc1
> 25 µM | Cc1c(C(=O)Nc2cc(C(=O)Nc3cccnc3)ccn2)cc(C2CC2)n1C
50.6 µM | c1cnc(C2CCN(Cc3c[nH]c4ccccc34)CC2)nc1
66.3 µM | O=C(Nc1ccc2c(c1)CNC2)c1cncc(N2CCOCC2)c1

Further lines, the compound ahead of its results:

SMILES | IC50
c1ccc2c([C@H]3CCN(C[C@H]4CCOC4)C3)c[nH]c2c1 | > 99.5 µM
CC(C)(C)OC(=O)Cc1cc(CN)cc(NC(=O)c2cc(Cl)cc(NC(=O)OCc3ccccc3)c2)c1 | > 99.5 µM
O=C(Nc1ccc2c(c1)CNC2)c1cccc2sccc12 | 0.456 µM
CC(C)(C)c1cc(N2CCN(c3cccc4[nH]ncc34)CC2)nc(C(=O)O)n1 | > 99.5 µM
CCOC(=O)[C@H]1[C@H](c2cc(Cl)cc(NC(=O)OCc3ccccc3)c2)[C@H]1c1cccc(-c2nnn[nH]2)c1 | 26.9 µM
N#C[C@H](Nc1cccn(CC(=O)O)c1=O)c1cc(Cl)cc(C2CC2)c1 | > 99.5 µM
CCCNC(=O)[C@H](Nc1ccc2c(c1)CNC2)c1cc(Cl)cc2[nH]ncc12 | 0.036 µM and 0.031 µM
CNC(=O)[C@H](Nc1cncc(C(=O)O)c1)c1cc(Cl)cc(C2CC2)c1 | > 99.5 µM
CS(=O)(=O)c1ccc(CN)cc1NC(=O)c1cc(Cl)cc(NC(=O)OCc2ccccc2)c1 | 19.8 µM
Cc1ccc2[nH]ncc2c1C(=O)Nc1ccc2c(c1)CNC2 | > 25 µM
NCc1cccc(NC(=O)c2cc(Br)cnc2OCC2CC2)c1 | > 99.5 µM
CCn1c(=O)c(N2CC3(COC3)[C@](F)(CO)C2)nc2ccccc21 | > 99.5 µM
Clc1cc(CNc2ccc3c(c2)[C@@H]2CC[C@H]3N2)c2cn[nH]c2c1 | > 25 µM
NCc1cccc(NC(=O)[C@@H](NC(=O)OCc2ccccc2)C2CCN(C(=O)c3cscn3)CC2)c1 | > 99.5 µM
NCc1cccc(NC(=O)c2cc(Br)cc(NC(=O)OCc3ccccc3)c2)c1 | 7.91 µM
Fc1ncccc1OCc1cc(Cl)nc(N2CCNCC2)n1 | > 99.5 µM
Oc1cc(N2CCN(Cc3c[nH]c4ccccc34)CC2)ccn1 | > 99.5 µM
NCc1cccc(NC(=O)[C@H](NC(=O)OCc2ccccc2)C2CCCCC2)c1 | > 99.5 µM
CCn1c(=O)c(N2CC[C@H]3[C@H]2[C@H]3C(F)(F)F)nc2ccccc21 | > 99.5 µM
O=C(Nc1ccc2c(c1)CNC2)c1ccc(OC(F)(F)F)cc1 | > 25 µM
Cc1ncc(Br)cc1C(=O)Nc1ccc2c(c1)CNC2 | 1.85 µM

SMILES | IC50
Cc1ocnc1COc1cccc([C@H](NC(=O)OCc2ccccc2)C(=O)Nc2cccc(CN)c2)c1 | > 99.5 µM
Nc1nc(S(=O)(=O)c2ccccc2)c(Cl)s1 | > 99.5 µM
N[C@@H](Cc1c[nH]cn1)C(=O)N1CCC2(CC1)OCCc1cc(O)ccc12 | > 99.5 µM
O=C(Nc1ccc2c(c1)CNC2)N1CCC2(C1)CC(F)(F)C2 | 15.7 µM
CC(C)(CO)NC(=O)[C@@H](NC(=O)OCc1ccccc1)c1ccc(OCc2ccccc2)cc1 | > 99.5 µM
NCc1cccc(NC(=O)c2cc(C(F)(F)F)ccc2SC2CCCC2)c1 | 84.3 µM
Cc1c(C(=O)Nc2cc(F)cc(CN)c2)cc(C2CC2)n1C | 89.9 µM
CCn1c(=O)c(N2C[C@@H]3CN(C4CCC4)C[C@@H]3C2)nc2ccccc21 | > 99.5 µM
CC1(C)CCC([C@@H](NC(=O)OCc2ccccc2)C(=O)Nc2cccc(CN)c2)CC1 | 94.3 µM
CCn1c(=O)c(N2C[C@H]3C[C@H]2CS(=O)(=O)C3)nc2ccccc21 | > 99.5 µM
O=C(Cn1ccnc(N2CC[C@H](CO)C2)c1=O)NCc1ccsc1 | > 99.5 µM
COCCN1C(=O)CCc2cc(NC(=O)c3cc(C4CC4)n(C)c3C)ccc21 | > 25 µM
O=C(Nc1cc(Cl)cc([C@H]2[C@H](CO)[C@@H]2c2cccc(-c3nn[nH]n3)c2)c1)OCc1ccccc1 | 84.1 µM
Cc1cc(=O)c(C(=O)Nc2cccc(CN)c2)nn1-c1ccccc1C(F)(F)F | > 99.5 µM
CCc1ccc([C@@H](CC(=O)Nc2cccc(CN)c2)NC(=O)OCc2ccccc2)cc1Br | 12.1 µM
CN(C)C(=O)N1Cc2ccc(NC(=O)c3cc(Cl)cc4[nH]ncc34)cc2C1 | > 25 µM
CCc1ncc(CN2CCC(c3nc4ccccc4s3)CC2)[nH]1 | > 99.5 µM
O=C(O)c1cc(Cl)ccc1S(=O)(=O)NC1CCN(S(=O)(=O)c2ccc(I)cc2)CC1 | > 99.5 µM
O=C1Cc2c(cccc2C(=O)NC2CCN(c3nccs3)CC2)N1 | > 25 µM
CCn1cnnc1COc1ccc(S(=O)(=O)Nc2ccc(Cl)cc2C(=O)O)cc1 | > 99.5 µM
O=C(Nc1cc(Cl)cc(C(=O)Nc2ccc3c(c2)CNC3=O)c1)OCc1ccccc1 | > 99.5 µM

SMILES | IC50
N#Cc1c[nH]c2c(C(=O)Nc3ccc4c(c3)CNC4)cccc12 | 0.582 µM
O=C(Nc1cc(Cl)cc([C@H](Nc2cccc(-c3nn[nH]n3)c2)C(=O)NC[C@H]2CCCO2)c1)OCc1ccccc1 | > 99.5 µM
O=C(Nc1cc(Cl)cc(C(=O)NC[C@@]23CC[C@H](CNC2)C3)c1)OCc1ccccc1 | > 99.5 µM
O=C1Cc2c(cccc2C(=O)Nc2ccc3c(c2)C(=O)OC3)N1 | > 25 µM
C=C1C[C@H](c2cc(Cl)cc(NC(=O)OCc3ccccc3)c2)[C@@H](c2cccc(-c3nn[nH]n3)c2)C1 | 18.9 µM
O=C1Cc2c(cccc2C(=O)N[C@H]2C[C@H](Cn3ccnc3)C2)N1 | > 25 µM
O=C(N[C@@H](C(=O)NCC1CCNCC1)c1ccc(OCc2ccccc2)cc1)OCc1ccccc1 | > 99.5 µM
CCCc1sc(C(=O)Nc2ccc3c(c2)CNC3)cc1CC | 20.1 µM
O=C(Nc1ccc2c(c1)CNC2)c1cc(Cl)cc2nn(C3COC3)cc12 | 0.539 µM
O=C(Nc1cc(Cl)cc(-c2cnn3ccc(C(=O)O)cc23)c1)OCc1ccccc1 | > 99.5 µM
COCCNC(=O)[C@H](Nc1cccc([C@H]2CCOC2)c1)c1cc(Cl)cc2[nH]ncc12 | > 25 µM
C[C@H]1NCCc2c(-c3ccc4[nH]c(C(=O)O)cc4c3)cc(F)cc21 | > 99.5 µM
Cc1c(C(=O)Nc2cc(CCCN)ccn2)cc(C2CCC2)n1C | > 99.5 µM
Cc1cc(NS(=O)(=O)c2ccc(Oc3ccccc3Cl)cc2)c(C(=O)NCC(F)(F)F)cc1F | 72.3 µM
O=C(NCC(F)F)[C@H](Nc1ccc2c(c1)CNC2)c1cc(F)cc2[nH]ncc12 | 0.058 µM and 0.037 µM
Cc1c(C(=O)Nc2cc(C(=O)N3CC[C@H](CO)C3)ccn2)cc(C2CC2)n1C | > 25 µM
NCc1cccc(NC(=O)[C@@H]2[C@H](N)[C@@H]3CCCCC[C@@H]32)c1 | > 99.5 µM
O=C(Nc1ccc2c(c1)CNC2)c1cc(F)cc(-c2ccncc2)c1 | 0.215 µM
NCCc1nsc(NC(=O)c2cc(Cl)cc(NC(=O)OCc3ccccc3)c2)n1 | > 99.5 µM
COC(=O)c1cc(Cl)cc(S(=O)(=O)Nc2cccc(-c3nnn[nH]3)c2)c1F | > 99.5 µM
